# Results taken from US5582832A, “Compositions for topical application to skin” (priority 1995, dated 1996).
# Experiments:
# Assay type in all cases: cell-based, human
# keratinocytes = assay: Rate of DNA synthesis (3H-thymidine incorporation) in keratinocytes; details: for DNA synthesis, % of control (100 nM 1,25D + 5 uM ceramide Formula A): 10 uM azole (or no azole) + 100 nM 1,25D + 5 uM ceramide Formula A; for DNA synthesis, % of control (100 nM 1,25D + 5 uM ceramide Formula A) / keratinocyte DNA synthesis, % of the corresponding controls (10 uM Econazole) / keratinocyte DNA synthesis, % of the corresponding controls (no azole): * = synergistic effect; for keratinocyte DNA synthesis, % of the corresponding controls (1 uM Econazole) / keratinocyte DNA synthesis, % of the corresponding controls (10 uM Econazole) / keratinocyte DNA synthesis, % of the corresponding controls (no azole): Table 5; for keratinocyte DNA synthesis, % of the corresponding controls (1 uM Econazole): 1 uM ceramide + 1 uM Econazole; for keratinocyte DNA synthesis, % of the corresponding controls (10 uM Econazole): 1 uM ceramide + 10 uM Econazole; for keratinocyte DNA synthesis, % of the corresponding controls (no azole): 1 uM ceramide
# Procedure: (§1) 1. Normal human keratinocytes isolated from neonatal foreskins by trypsin treatment were grown in DME medium/10% fetal calf serum in the presence of irradiated 3T3 mouse fibroblasts for establishing dividing keratinocyte colonies. Keratinocytes were grown under the above condition until their third passage.
# 2. For the experiments, third passage keratinocytes were plated into a serum-free keratinocyte growth medium (KSFM; obtained from Life Technologies, Grand Island, N.Y.) containing 0.09 mM calcium. 20,000 to 30,000 cells were plated into each well of 24 well cell culture plates and grown for 5 days, until the cells reach about 80% confluence.
# 3. Medium was changed to fresh medium and the various test materials were added to the medium from an ethanolic stock solution (10:00 AM). The final ethanol concentration in the cultures was kept below 0.2%. Control cultures received no tested material but were dosed with 0.2% ethanol. Each compound or combination was tested in three separate wells. By 4:00 PM, 1 uCi of ^3 H-thymidine (Amersham Corp., Sp activity 40 Ci/mmol) was added to the 1 ml medium in each well. The cells were incubated overnight and […] (10:00 AM next day) the amount of ^3 -thymidine associated with the cellular DNA of keratinocytes was assessed as described below.
# 4. The medium was aspirated, and the wells washed with 1 ml phosphate-buffered saline. The DNA and proteins of the cells in the plate were then precipitated by adding 1 ml of ice-cold 10% trichloroacetic acid (TCA). The plates were left on ice for 30 minutes to complete the precipitation process. TCA was then aspirated and each well was then washed four times with 5% TCA. The plates were then dried on a filter pad and the cells in the wells were dissolved in 0.5 ml of 0.1N sodium hydroxide. The sodium hydroxide was then neutralized using 0.1N hydrochloric acid and the solution (1 ml total volume) was then transferred to a scintillation vial. 50 μl samples from each vial were used for protein assay using BCA protein assay reagent obtained from Pierce Chemical Company. 8 ml of a scintillation fluid (Ecolume) was added to the rest of the solution in the vial, and the vials were counted in a scintillation counter to determine the amount of radioactivity in each vial. The DNA synthesis rate was then calculated as cpm ^3 H thymidine incorporated into total cellular DNA/microgram of cell protein for each individual well. Mean and standard deviation for each group was also calculated.
# Rationale for using 1,25D is that in in vivo situation, these azoles will inhibit the endogenous degradation of the 1,25D which is obtained from the circulation. Azoles will act in keratinocytes to increase the endogenous levels of 1,25D within cells. Keratinocytes (70% confluent) were incubated with 10 uM of the different azoles in the presence of 100 nM 1,25D. One of the groups was treated with 5 uM of ceramide of Formula A in the medium. After four hours, all the wells were treated with 1 uCi ^3 H-thymidine and the rate of DNA synthesis was estimated as described in the methods.
# Keratinocytes were incubated with 1 or 10 uM of Econazole in the presence of 1 uM of the different ceramide analogues and 100 nM 1,25D in the medium. Thymidine incorporation was measured with an overnight incubation as described in Example 2.
# [1] = test system: 25D degradation (vitamin D metabolism in keratinocytes); assay: Vitamin D metabolism in keratinocytes: 25D degradation; details: for % degradation (25D): Table 1; for 25D (% degradation): Table 3, 10 uM
# Procedure: as §1
# (§2) 80% confluent keratinocytes were incubated with 0.05 uCi of ^3 H-25D or ^3 H-1,25D for two hours or 20 hours in the presence of 1-100 uM of the different compounds. Reaction was stopped by addition of methanol and the cells and medium were extracted using chloroform:methanol. The chloroform layer was separated, dried and spotted on TLC plates. […] The amount of radioactivity in each lane was quantitated using the BioScan radioactive plate reader. The amount of radioactivity remaining in the peak area of 25D and 1,25D were calculated as % of control. The % remaining was subtracted from 100 to get the % degradation of the metabolites.
# (§3) The data are expressed as mean of % degradation of 25D or 1,25D. The range is also given in parenthesis.
# [2] = test system: 1,25D degradation (vitamin D metabolism in keratinocytes); assay: Vitamin D metabolism in keratinocytes: 1,25D degradation; details: for % degradation (1,25D): Table 1; for 1,25D (% degradation): Table 3, 10 uM
# Procedure: as §1, §2, §3
# [3] = Tables 4A-4F, 100 nM 1,25D, azole 10 uM, ceramide Formula A 5 uM, mean + SD
# [4] = Table 2, 1 uM, 20 hour incubation, mean of duplicate (range)
# [5] = Tables 5A-5I, 100 nM 1,25D, Econazole 10 uM, ceramide analogue 1 uM
# [6] = Tables 5A-5I, 100 nM 1,25D, Econazole 10 uM, ceramide analogue 1 uM, mean + SD
Compound,"keratinocyte DNA synthesis, % of the corresponding controls (1 uM Econazole) (keratinocytes; 100 nM 1,25D)","keratinocyte DNA synthesis, % of the corresponding controls (10 uM Econazole) (keratinocytes; 100 nM 1,25D)","keratinocyte DNA synthesis, % of the corresponding controls (no azole) (keratinocytes; 100 nM 1,25D)",DNA synthesis (% control) (keratinocytes; [5]),DNA synthesis (keratinocytes; [6]),% degradation (25D) ([1]; 100 uM compound),"% degradation (1,25D) ([2]; 100 uM compound)",other results
Clc1ccccc1C(c1ccccc1)(c1ccccc1)n1ccnc1 [Clotrimazole],–,–,–,–,–,–,–,"DNA synthesis, % of control (100 nM 1,25D + 5 uM ceramide Formula A) (keratinocytes; Table 4, mean + SD, 1440 min): 19.5 + 0.77 % of control; DNA synthesis, % of control (azole, only 100 nM 1,25D) (keratinocytes; Table 4, 10 uM azole, 100 nM 1,25D, no ceramide, mean + SD, 1440 min): 35.2 + 6.5 % of control; DNA synthesis (keratinocytes; [3]): 51610 + 6735 cpm 3H thymidine incorporated; DNA synthesis (% control) (keratinocytes; Tables 4A-4F, 100 nM 1,25D, azole 10 uM, 1440 min): 35.2 % control; blocking of 25D degradation (in words) ([1]; 1 uM, 20 hours (Table 2)): very effective; blocking of 25D metabolism (in words) ([1]; 2 hours): ineffective; blocking of 25D metabolism (in words) ([1]; 20 hours): very effective; % degradation (25D) ([1]; 10 uM compound): 5%; 25D degradation (%) [1, 4]: 47.4 (42.6-52.2) %; 25D (% degradation) ([1]; 2 hours): 79%; 25D (% degradation) ([1]; 20 hours): 5%; inhibition of 25D metabolism (in words) ([1]; results of Table 1): most potent; blocking of 1,25D degradation (in words) ([2]; 1 uM, 20 hours (Table 2)): very effective; blocking of 1,25D metabolism (in words) ([2]; 2 hours): ineffective; blocking of 1,25D metabolism (in words) ([2]; 20 hours): very effective; % degradation (1,25D) ([2]; 10 uM compound): 2%; 1,25D degradation (%) [2, 4]: 29.5 (21.8-37.2) %; 1,25D (% degradation) ([2]; 2 hours): 77%; 1,25D (% degradation) ([2]; 20 hours): 2%; inhibition of 1,25D metabolism (in words) ([2]; results of Table 1): most potent"
CCCCCCCCCCCCC/C=C/C(O)C(CO)NC(C)=O (stereo not drawn) [Formula A],75.9 + 23.3%,38.2 + 13.9%,97 + 32%,97.7 % control,29272 + 11126 cpm 3H thymidine incorporated,–,–,"DNA synthesis, % of control (100 nM 1,25D + 5 uM ceramide Formula A) (keratinocytes; Table 4, mean + SD, 1440 min): 81.1 + 16.5 % of control; DNA synthesis (% control) (keratinocytes; Tables 4A-4F, 100 nM 1,25D, azole 10 uM, ceramide Formula A 5 uM, 1440 min): 74.14 % control; DNA synthesis (keratinocytes; [3]): 108753 + 24719 cpm 3H thymidine incorporated"
CCCCCCCCCCCCC/C=C/C(O)C(CO)NC(=O)CCCCC (stereo not drawn) [Formula B],123.9 + 30.3%,61.7 + 17%,126.6 ± 17.8%,126 % control,37927 + 6562 cpm 3H thymidine incorporated,–,–,–
CCCCCCCCCCCCCCC(O)CN(CCO)C(C)=O (stereo not drawn) [Formula C],78.0 + 15.1%,47.2 + 33.6%,77.7 ± 7.4%,77.7 % control,23288 + 2737 cpm 3H thymidine incorporated,–,–,–
CCCCCCCCCCCCCCC(O)CN(CCO)C(=O)CCCCC (stereo not drawn) [Formula D],97.0 + 19.5%,28.8 + 3.9%,69.5 ± 11.3%,69.5 % control,20817 + 3928 cpm 3H thymidine incorporated,–,–,"growth inhibition by ceramide analogues (in words) (keratinocytes; 1 uM, absence of azole): significantly inhibitory"
CCCCCCCCCCCCCCCCOCC(O)CN(CCO)C(C)=O (stereo not drawn) [Formula E],99.8 + 19.1%,20.5 + 12.9%,104.3 ± 17.7%,104.4 % control,31267 + 6143 cpm 3H thymidine incorporated,–,–,–
CCCCCCCCCCCCCCCCN(CC(O)CO)C(C)=O (stereo not drawn) [Formula F],84.3 + 1.96%,40.9 + 9.0%,90.3 ± 21.4%,90.3 % control,27051 + 7858 cpm 3H thymidine incorporated,–,–,–
CCCCCCCCCCCCCCCCN(CC(O)CO)C(=O)CCCCC (stereo not drawn) [Formula G],84.8 + 12.7%,28.2 + 15.2%,102.8 ± 14.4%,102.8 % control,30794 + 5311 cpm 3H thymidine incorporated,–,–,–
CCCCCCCCCCCCN(CC(O)CO)C(=O)C(O)CCCCCC (stereo not drawn) [Formula K],82.9 + 16.9%,38.7 + 14.8%,100.2 ± 9.6%,80 % control,23958 + 5660 cpm 3H thymidine incorporated,–,–,–
N[C@@H](Cc1c[nH]c2ccccc12)C(=O)O [L-Tryptophan],–,–,–,–,–,83%,100%,–
Cc1ncc(C[n+]2csc(CCO)c2C)c(N)n1 [Thiamine],–,–,–,–,–,85%,77%,–
Nc1nc2ncc(CNc3ccc(C(=O)N[C@@H](CCC(=O)O)C(=O)O)cc3)nc2c(=O)[nH]1 [folic acid],–,–,–,–,–,78%,95%,–
"CC1=CC(=O)c2ccccc2C1=O [menadione (vitamin K1), menadione]",–,–,–,–,–,89%,93%,–
